Values of other authors in publication PMC11255275, “Structural insights into the triple agonism at GLP-1R, GIPR and GCGR manifested by retatrutide” (Cell Discovery, 2024).

Experiments:
[1] = test system: GLP-1R; conditions: among GLP-1R, GIPR and GCGR; general statement in introduction; cited from earlier work
Text: (§1) The most successful treatments currently available include glucagon-like peptide-1 (GLP-1) receptor agonists (GLP-1RAs), exemplified by semaglutide (approved in 2017, $19.9 billion sales in 2023)[3] and tirzepatide (approved in 2022, $5.3 billion sales in 2023)[4].

[2] = test system: GIPR; conditions: in addition to GLP-1R; cited from earlier work
Text: as §1

Substance	receptor activation [1]	receptor activation [2]
semaglutide	solely activates GLP-1R	
tirzepatide		also activates glucose-dependent insulinotropic polypeptide (GIP) receptor (GIPR)
